# Measurements as given in the METLIN SMRT retention time set (Domingo-Almenara et al. 2019).
# Assay: gradient 5% acetonitrile 3 min, to 50% in 2 min, to 85% in 15 min, held 3 min, 100 µL/min
# Conditions: column: Zorbax Extend-C18 2.1 x 50 mm; eluents: water / acetonitrile, 0.1% formic acid
# In short: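 Retention times of pure standards were taken from adduct peaks that were selected by computer and manually inspected. Over 3 months, mixtures of ~100 molecules were run by HPLC–quadrupole time-of-flight mass spectrometry in positive and negative ionization mode. The Zorbax Extend-C18 column (2.1 × 50 mm, 1.8 μm) ran at 100 μL/min in water and acetonitrile, each containing 0.1% formic acid, with 40 μL dead volume and 900 μL dwell volume.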
row,Compound,RP-LC retention time [s]
1,COc1ccccc1-c1nc(Cn2nnc(-c3nc(-c4ccncc4)no3)c2C)c(C)o1,872
2,Cc1ccc(S(=O)(=O)N2CCc3c(c(-c4nnc(-c5ccccc5)o4)nn3C)C2)cc1Cl,1070
3,COC(=O)C1=C(C)N(C(C)C)C(=O)C1(NC(=O)CCc1ccccc1)C(F)(F)F (stereo not given),936
4,O=C(CSc1ccc(-c2ccccn2)nn1)Nc1ccc(F)c(F)c1,789
5,CC(Oc1ccccc1F)C(=O)Nc1nc(-c2ccc(S(=O)(=O)N3CCOCC3)cc2)cs1 (stereo not given),1010
6,O=C1c2ccccc2C(=O)c2c(NCCc3ccc(O)cc3)ccc(NCCc3ccc(O)cc3)c21,1180
7,CCC(=O)N1CCc2ccccc2C1C(=O)NCCCN1CCCC1=O (stereo not given),646
8,Cc1nnc2ccc(S(=O)(=O)N(Cc3cccc(F)c3)c3ccccc3)cn12,866
9,Cc1ccc(-c2nnc(SCc3cccc(Cl)c3)o2)cc1,1210
10,CN(CCc1noc(-c2ccc(Cl)cc2)n1)C(=O)NCc1ccccc1,932
11,CCOC(=O)CNC(=O)NCC(=O)N1CCc2ccccc21,658
12,COC(=O)c1cnc2nc(C)ccc2c1Nc1ccc(Br)cc1,705
13,O=C(Cc1csc(Nc2ccccc2)n1)NCCC1=CCCCC1,865
14,CCNc1cc(N2CCCC(CCC(=O)Nc3ccc(OC)cc3OC)C2)ncn1 (stereo not given),671
15,COCCN1C(=O)[C@H]2CN(Cc3cccc(OC(F)(F)F)c3)C[C@H]2C1=O,706
16,CCOC(=O)c1cccc(N2C=C(C#N)S(=O)(=O)c3ccccc32)c1,898
17,COc1ccc(NC(=O)Cn2c(C(C)C)nc3c(c2=O)CCN(Cc2ccccc2)C3)cc1OC,659
18,CCOC(=O)Cc1ccc(NC(=O)NC2CCN(c3ccc(C)cc3)C2=O)cc1 (stereo not given),784
19,CC(C)NC(=O)CN1C(=O)CCSc2ccccc21,708
20,CCc1nnc2cc(N3CCN(S(=O)(=O)c4ccc(C(C)C)cc4)CC3)cnn12,820
21,CCC(CO)NCc1ccc(-c2ccc(F)cc2)o1 (stereo not given),637
22,CCn1cnc(S(=O)(=O)N2CCC(C(=O)Nc3ccc(F)cc3)CC2)c1,709

row,Compound,RP-LC retention time [s]
1,CCn1c(=O)sc2cc(S(=O)(=O)N3CCC(C(=O)Nc4cc(C)ccc4C)CC3)ccc21,932
2,O=C(Nc1cccc(Cl)c1)N1CCC(n2cnc3cc(F)ccc3c2=O)CC1,858
3,O=C1NC(=O)/C(=C\c2ccccc2Br)S1,821
4,Cc1ccc(C)c(NC(=O)Cn2c(C)nc3c(sc4nc(-c5ccccc5)ccc43)c2=O)c1,1090
5,Cn1cc(CN2CCC(C(=O)N3CCCC3)CC2)c2cc(Cl)ccc21,631
6,COc1ccc(-c2cn3c(CC(=O)Nc4cc(C)ccc4C)csc3n2)cc1OC,746
7,Cn1c(C(=O)NCCCN2CCN(C3CCCCC3)CC2)cc2sccc21,547
8,CCCCOc1ccc(NC(N)=Nc2ccc(Cl)cc2)cc1,778
9,Cc1cccc(Nc2ncccc2S(N)(=O)=O)c1,811
10,CSc1ccc(C2C(C(=O)N3CCOCC3)=C(C)NC3=C2C(=O)CC(C)(C)C3)cc1 (stereo not given),696
11,CCc1ccc(NC(=O)C2CCCN2S(=O)(=O)c2cc3c(cc2Cl)NC(=O)CO3)cc1 (stereo not given),868
12,COc1ccc(OC)c2sc(NC(=O)C3CCCCN3S(C)(=O)=O)nc12 (stereo not given),793
13,Cc1ccc(NC(=O)C2CCN(C(=O)c3ncn4c3COC(c3ccc(F)cc3)C4)CC2)c(Cl)c1 (stereo not given),842
14,O=S(=O)(Nc1cccn2cnnc12)c1ccc2c(c1)CCC2,736
15,Cn1ncc2c3ccccc3n(CC(=O)NCCCN3CCN(Cc4ccccc4)CC3)c2c1=O,597
16,CCN1CCN(CCNC(=O)C2CCCN(S(=O)(=O)N(C)c3ccc(F)cc3)C2)CC1 (stereo not given),551
17,COc1ccccc1N1CCN(c2cc(SCC(=O)NCc3ccc(SC)cc3)ncn2)CC1,929
18,Cc1noc(-c2cccc(OC3CN(C(=O)c4cccn4C)C3)c2)n1,898
19,Cc1c(-c2noc(C(=O)NCCN3CCCC3)n2)oc2c(C)cccc12,668
20,O=C(NCc1cc(F)ccc1F)C1CCN(c2cncnc2N2CCCC2)CC1,653
21,CNC(=O)N1CCC(C2CCN(C(=O)c3ccc(Cl)s3)C2)CC1 (stereo not given),705
22,CC(C)(O)CC[C@@H](O)[C@](C)(O)[C@H]1CC[C@@]2(O)C3=CC(=O)[C@@H]4C[C@@H](O)[C@@H](O)C[C@]4(C)[C@H]3CC[C@]12C,629

row,Compound,RP-LC retention time [s]
1,Cc1nn(C(C)C(=O)NCCCN2CCCC2)c(=O)c2nn(-c3ccccc3)c(C)c12 (stereo not given),614
2,O=C(Cn1nc(-c2ccco2)ccc1=O)NCCOc1cc(N2CCCCC2)ncn1,588
3,O=C(CN1C(=O)CC(c2ccccc2)S(=O)(=O)c2ccccc21)N1CCOCC1 (stereo not given),704
4,COc1ccc(-c2nc3cnccn3c2Nc2ccc(C(=O)O)cc2)cc1,662
5,Cc1nc2cc(N3CC(C(=O)Nc4ccccc4)CC3=O)ccc2o1 (stereo not given),703
6,O=S(=O)(c1cccn2c(SCc3ccc(Cl)cc3)nnc12)N1CCCC1,848
7,CCc1nc2cc(-c3noc(-c4ccccc4C)n3)ccc2o1,1280
8,COc1cccc(C2Cn3nnc(-c4nc(-c5ccc(OCc6ccccc6)cc5)no4)c3CO2)c1 (stereo not given),1340
9,Cn1c(C#N)ccc1-c1ccc2c(c1)C(C)(C)OC(=S)N2,989
10,COc1ccccc1-c1noc(C2CCCN2C(=O)Cc2c[nH]c3ccccc23)n1 (stereo not given),838
11,O=C(CCc1ccc2c(c1)CNCCO2)NCC1CC1,574
12,CC1(C(=O)NCc2ccccc2)CCCN(C(=O)Nc2ccc(Br)cc2F)C1 (stereo not given),1030
13,COc1ccc(C(=O)Oc2ccc(/C=C/c3ccncc3)cc2OC)cc1OC,606
14,COc1ccc2c(c1)C1(CCN(C(=O)NCc3ccc(C)cc3)C1)C(=O)N2 (stereo not given),725
15,O=C(NCCS(=O)(=O)N1CCN(c2ccccc2)CC1)c1ccc(Br)o1,807
16,CCOc1ccc(-c2cc3c(=O)n(Cc4nc(-c5ccccc5)no4)ncn3n2)cc1,720
17,CCOc1ccccc1NC(=O)N1CCc2cn(CCOC)c3cccc(c23)C1,827
18,CCOc1ccccc1NC(=O)N1CCC2(CC1)NC(=O)c1ccc(Cl)cc1N2CC,955
19,Cc1ccn2cc(-c3ccc(NC(=O)c4ccccc4C(F)(F)F)cc3)nc2n1,664
20,CC(C)CC(NC(=O)CC1CCCCC1)C(=O)Nc1nc2ccccc2[nH]1 (stereo not given),803
21,O=c1n(CC2CC2)c2cccnc2n1[C@H]1CCCN(S(=O)(=O)c2cccnc2)C1,835
